Assay results as given in patent US4866065A, “Imidazothienopyrimidines useful in psychopharmaceutical preparations” (A/S Ferrosan, priority 1987, dated 1989).

System: benzodiazepine receptors
Assay: in vivo displacement of 3H-flunitrazepam specific binding to brain benzodiazepine receptors in mice
Design: species or system mice (female, NMR)
Settings: intraperitoneal, test substance 15 min before 3H-FNM i.v., sacrificed 20 min after 3H-FNM, forebrain
Excerpt: The pharmaceutical properties of the compounds of the invention can be illustrated by determining their capability for displacing radioactive labelled flunitrazepam from benzodiazepine receptors.
The displacement activity of the compounds of the invention may be found by determining the ED50 value. The ED50 value represents the dose (mg/kg) of a test substance which causes the specific binding of flunitrazepam to benzodiazepine receptors in a living brain to be reduced to 50% of the oontrol value.
Such an in vivo test is carried out as follows:
Principle. Twenty minutes after a dose of ^3 H-flunitrazepam (^3 H-FNM) (200 μCi/kg, i.v.) the amount of specific ^3 H-FNM binding to brain benzodiazepine receptors has reached its maximal value.
Test procedure. Suspensions of test substances (2 mg/ml) are prepared in 5% Duphasol-X (TM Duphar, castor oil-ethylene oxide derivative for emulsifying and solubilizing Oil and other water-insoluble substances) by sonification for 10 min using a Branson B15 microtip ultrasonifier (setting 7). Groups of three mice (female, NMR, 18-22 grams) are injected with the test substance at 100 mg/kg intraperitoneally. Fifteen minutes after test substance administration the mice are challenged with 4 μCi intravenously of ^3 H-FNM (70-90 Ci/mole) in 200 μl physiological saline. Twenty minutes after ^3 H-FNM administration mice are sacrificed by decapitation, the forebrains rapidly excised (within 30 sec) and homogenized in 12 ml of icecold 25 mM KH2 PO4, pH 7.1, using an Ultra-Turrax homogenizer fitted with an N 10 shaft. […] The amounts of radioactivity on the filters are determined by conventional scintillation counting. […]
Results. The ED50 value is determined from dose response curves. If only one dose of test substance is administered the ED50 value is calculated as follows, provided that the inhibition of specific binding is within the range of 25-75%: [formula] where Co is specific binding in controls and Cx is specific binding in mice treated with test substance.

SMILES	ED50 (dose reducing specific binding of flunitrazepam to benzodiazepine receptors in living brain to 50% of control)
Cn1c(=O)c2sccc2n2cnc(-c3noc(C4CC4)n3)c12 [Compound 3, 3-(5-cyclopropyl-1,2,4-oxadiazol-3-yl)-4,5-dihydro-4-methyl-5-oxo-imidazo[1,5-a]thieno[2,3-e]pyrimidine]	0.6 mg/kg
Cn1c(=O)c2sccc2n2cnc(-c3nc(C4CC4)no3)c12 [Compound 8, 3-(3-cyclopropyl-1,2,4-oxadiazol-5-yl)-4,5-dihydro-4-methyl-5-oxo-imidazo[1,5-a]thieno[2,3-e]pyrimidine]	0.9 mg/kg
Cc1noc(-c2ncn3c4ccsc4c(=O)n(C)c23)n1 [Compound 10, 4,5-dihydro-4-methyl-3-(3-methyl-1,2,4-oxadiazol-5-yl)-5-oxo-imidazo[1,5-a]thieno[2,3-e]pyrimidine]	1.8 mg/kg
